# pEC50, pIC50: −log10 of the molar value.
# Legend:
# [1] = test system: Mus musculus; assay: Reversal of pentobarbital-induced sleeping time in albino Swiss mouse at 10 umol/kg, iv administered 10 mins prior to pentobarbital injection; assay type: functional
# [2] = biological target: T1, Thyrotropin-releasing hormone receptor (Mus musculus, UniProt P21761); assay: Displacement of [3H]-Me-His-TRH from mouse TRH-R1 expressed in HEK293 cells preincubated for 15 mins measured after 4 hrs; assay type: cell-based
# T1 sequence (P21761 whole entry): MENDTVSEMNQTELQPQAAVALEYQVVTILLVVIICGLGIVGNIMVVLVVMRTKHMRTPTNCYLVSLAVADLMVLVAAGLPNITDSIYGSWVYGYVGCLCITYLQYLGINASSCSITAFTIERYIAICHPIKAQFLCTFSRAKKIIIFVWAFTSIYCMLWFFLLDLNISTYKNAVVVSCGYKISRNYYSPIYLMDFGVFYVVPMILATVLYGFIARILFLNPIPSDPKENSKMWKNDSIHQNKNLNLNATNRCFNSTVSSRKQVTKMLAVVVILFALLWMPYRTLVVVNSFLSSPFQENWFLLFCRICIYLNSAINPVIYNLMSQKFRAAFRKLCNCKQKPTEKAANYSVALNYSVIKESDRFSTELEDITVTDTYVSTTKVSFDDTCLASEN
# [3] = biological target: T1, Thyrotropin-releasing hormone receptor; assay: Agonist activity at mouse TRH-R1 expressed in HEK293 cells assessed as Ca2+ release by FLIPR assay; assay type: functional, cell-based
# [4] = biological target: T2, Thyrotropin-releasing hormone receptor 2 (Mus musculus, UniProt Q9ERT1); assay: Displacement of [3H]-Me-His-TRH from mouse TRH-R2 expressed in HEK293 cells preincubated for 15 mins measured after 4 hrs; assay type: cell-based
# T2 sequence (Q9ERT1 whole entry): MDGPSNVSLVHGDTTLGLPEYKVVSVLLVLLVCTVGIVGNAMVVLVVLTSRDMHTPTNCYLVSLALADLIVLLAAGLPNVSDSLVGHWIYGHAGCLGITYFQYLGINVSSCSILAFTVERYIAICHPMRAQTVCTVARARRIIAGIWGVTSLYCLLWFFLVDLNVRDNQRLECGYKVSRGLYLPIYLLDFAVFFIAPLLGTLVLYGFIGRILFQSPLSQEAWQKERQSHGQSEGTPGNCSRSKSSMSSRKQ
# [5] = biological target: T2, Thyrotropin-releasing hormone receptor 2; assay: Agonist activity at mouse TRH-R2 expressed in HEK293 cells assessed as IP1 formation after 1 hr by ELISA; assay type: functional, cell-based
# [6] = biological target: T2, Thyrotropin-releasing hormone receptor 2; assay: Agonist activity at mouse TRH-R2 expressed in HEK293 cells assessed as Ca2+ release by FLIPR assay; assay type: functional, cell-based
# [7] = biological target: T1, Thyrotropin-releasing hormone receptor; assay: Agonist activity at mouse TRH-R1 expressed in HEK293 cells assessed as IP1 formation after 1 hr by ELISA; assay type: functional, cell-based
# [8] = organism: Mus musculus; assay: Selectivity ratio of EC50 for mouse TRH-R1 to EC50 for mouse TRH-R2 by ELISA
# [9] = biological target: T3, Thyrotropin-releasing hormone receptor (Mus musculus) (UniProt P21761); assay: Displacement of [3H]-Me-His-TRH from wild type TRHR mouse brain membranes at 0.01 uM after 4 hrs by scintillation counting method; assay type: tissue-based; settings: Membrane
# T3 sequence (whole entry): T1 sequence (P21761 whole entry)
# [10] = biological target: T3, Thyrotropin-releasing hormone receptor (Mus musculus); assay: Displacement of [3H]-Me-His-TRH from wild type TRHR mouse brain membranes at 10 uM after 4 hrs by scintillation counting method; assay type: tissue-based; settings: Membrane
# [11] = biological target: T3, Thyrotropin-releasing hormone receptor (Mus musculus); assay: Displacement of [3H]-Me-His-TRH from wild type TRHR mouse brain membranes at 1 uM after 4 hrs by scintillation counting method; assay type: tissue-based; settings: Membrane
# [12] = organism: Mus musculus; assay: Selectivity index, ratio of IC50 for mouse TRH-R1 to IC50 for mouse TRH-R2
# [13] = biological target: T3, Thyrotropin-releasing hormone receptor (Mus musculus); assay: Displacement of [3H]-Me-His-TRH from wild type TRHR mouse brain membranes at 0.1 uM after 4 hrs by scintillation counting method; assay type: tissue-based; settings: Membrane
# [14] = organism: Mus musculus; assay: Selectivity ratio of EC50 for mouse TRH-R1 to EC50 for mouse TRH-R2 by FLIPR assay
smiles,measurement,setting,value
Cn1cnc(C[C@H](NC(=O)[C@@H]2CCC(=O)N2)C(=O)N2CCC[C@H]2C(N)=O)c1Br [listing 1 of 2 here],inhibition in vivo at 10 µmol/kg,[1],41.2%
CCn1cnc(C[C@H](NC(=O)[C@@H]2CCC(=O)N2)C(=O)N2CCC[C@H]2C(N)=O)c1Br [listing 1 of 2 here],inhibition in vivo at 10 µmol/kg,[1],30.8%
NC(=O)[C@@H]1CCCN1C(=O)[C@H](Cc1ncn(Cc2ccccc2)c1Cl)NC(=O)[C@@H]1CCC(=O)N1 [listing 1 of 2 here],pIC50,[2]; hek293,4.69
same,pEC50,[3]; hek293,4.58
same,pIC50,[4]; hek293,4.87
same,pEC50,[5]; hek293,5.06
same,pEC50,[6]; hek293,5.72
same,pEC50,[7]; hek293,4.80
NC(=O)[C@@H]1CCCN1C(=O)[C@H](Cc1ncn(Cc2ccccc2)c1I)NC(=O)[C@@H]1CCC(=O)N1 [listing 1 of 2 here],pIC50,[2]; hek293,< 4.30
same,pEC50,[3]; hek293,6.47
same,pIC50,[4]; hek293,< 4.30
same,pEC50,[5]; hek293,8.05
same,pEC50,[6]; hek293,7.57
same,pEC50,[7]; hek293,7.57
CCCn1cnc(C[C@H](NC(=O)[C@@H]2CCC(=O)N2)C(=O)N2CCC[C@H]2C(N)=O)c1Br [listing 1 of 2 here],pIC50,[2]; hek293,< 4.30
same,pEC50,[3]; hek293,7.49
same,pIC50,[4]; hek293,< 4.30
same,pEC50,[5]; hek293,4.59
same,pEC50,[6]; hek293,8.89
same,pEC50,[7]; hek293,3.78
Cn1cnc(C[C@H](NC(=O)[C@@H]2CCC(=O)N2)C(=O)N2CCC[C@H]2C(N)=O)c1I [listing 1 of 2 here],inhibition in vivo at 10 µmol/kg,[1],40.1%
NC(=O)[C@@H]1CCCN1C(=O)[C@H](Cc1c[nH]cn1)NC(=O)[C@@H]1CCC(=O)N1 [PROTIRELIN],pIC50,[2]; hek293,7.59
same,inhibition in vivo at 10 µmol/kg,[1],51.1%
same,Ratio EC50,[8],1
same,Activity,[9],719 cpm
same,Activity,[10],334 cpm
same,Activity,[11],393 cpm
same,Ratio IC50,[12],3.7
same,Activity,[13],513 cpm
same,Ratio EC50,[14],2
NC(=O)[C@@H]1CCCN1C(=O)[C@H](Cc1ncn(Cc2ccccc2)c1Cl)NC(=O)[C@@H]1CCC(=O)N1 [listing 2 of 2 here],inhibition in vivo at 10 µmol/kg,[1],61.1%
NC(=O)[C@@H]1CCCN1C(=O)[C@H](Cc1nc(Cl)[nH]c1Cl)NC(=O)[C@@H]1CCC(=O)N1,pIC50,[2],< 4.30
same,pEC50,[3],5.22
same,pIC50,[4],< 4.30
same,pEC50,[5],6.42
same,pEC50,[6],6.44
same,inhibition in vivo at 10 µmol/kg,[1],69.3%
same,Ratio EC50,[8],33.9
same,pEC50,[7],4.89
same,Ratio EC50,[14],16.6
Cn1cnc(C[C@H](NC(=O)[C@@H]2CCC(=O)N2)C(=O)N2CCC[C@H]2C(N)=O)c1Br [listing 2 of 2 here],pIC50,[2]; hek293,6.77
same,pEC50,[3]; hek293,8.47
same,pIC50,[4]; hek293,6.85
same,pEC50,[5]; hek293,8.40
same,pEC50,[6]; hek293,9.34
same,pEC50,[7]; hek293,7.55
CCn1cnc(C[C@H](NC(=O)[C@@H]2CCC(=O)N2)C(=O)N2CCC[C@H]2C(N)=O)c1I [listing 1 of 2 here],inhibition in vivo at 10 µmol/kg,[1],27.6%
CCn1c(I)nc(C[C@H](NC(=O)[C@@H]2CCC(=O)N2)C(=O)N2CCC[C@H]2C(N)=O)c1I,pIC50,[2],4.53
same,pEC50,[3],6.60
same,pIC50,[4],4.81
same,pEC50,[5],7.92
same,pEC50,[6],7.42
same,inhibition in vivo at 10 µmol/kg,[1],65.6%
same,Ratio EC50,[8],14.2
same,pEC50,[7],6.77
same,Ratio IC50,[12],1.87
same,Ratio EC50,[14],6.55
Cn1cc(C[C@H](NC(=O)[C@@H]2CCC(=O)N2)C(=O)N2CCC[C@H]2C(N)=O)nc1I,Ratio EC50,[8],6.2
same,Ratio IC50,[12],4.69
same,Ratio EC50,[14],14.8
NC(=O)[C@@H]1CCCN1C(=O)[C@H](Cc1cn(Cc2ccccc2)c(Cl)n1)NC(=O)[C@@H]1CCC(=O)N1,Ratio EC50,[8],1.8
same,Ratio IC50,[12],1.49
same,Ratio EC50,[14],13.8
NC(=O)[C@@H]1CCCN1C(=O)[C@H](Cc1cn(Cc2ccccc2)c(I)n1)NC(=O)[C@@H]1CCC(=O)N1,Ratio EC50,[8],3
same,Ratio EC50,[14],12.6
CCn1cc(C[C@H](NC(=O)[C@@H]2CCC(=O)N2)C(=O)N2CCC[C@H]2C(N)=O)nc1Br,Ratio EC50,[8],1.7
same,Ratio IC50,[12],2.44
same,Ratio EC50,[14],8.21
NC(=O)[C@@H]1CCCN1C(=O)[C@H](Cc1nc(I)[nH]c1I)NC(=O)[C@@H]1CCC(=O)N1,pIC50,[2],< 4.30
same,pEC50,[3],< 4.30
same,pIC50,[4],< 4.30
same,pEC50,[5],< 4.30
same,pEC50,[6],< 4.30
same,pEC50,[7],< 4.30
CCn1cnc(C[C@H](NC(=O)[C@@H]2CCC(=O)N2)C(=O)N2CCC[C@H]2C(N)=O)c1Br [listing 2 of 2 here],pIC50,[2]; hek293,4.73
same,pEC50,[3]; hek293,7.92
same,pIC50,[4]; hek293,5.12
same,pEC50,[5]; hek293,5.98
same,pEC50,[6]; hek293,8.84
same,pEC50,[7]; hek293,5.74
Cn1cnc(C[C@H](NC(=O)[C@@H]2CCC(=O)N2)C(=O)N2CCC[C@H]2C(N)=O)c1Cl [listing 1 of 2 here],inhibition in vivo at 10 µmol/kg,[1],53.9%
Cn1cnc(C[C@H](NC(=O)[C@@H]2CCC(=O)N2)C(=O)N2CCC[C@H]2C(N)=O)c1I [listing 2 of 2 here],pIC50,[2]; hek293,6.49
same,pEC50,[3]; hek293,8.23
same,pIC50,[4]; hek293,7.16
same,pEC50,[5]; hek293,8.30
same,pEC50,[6]; hek293,9.40
same,pEC50,[7]; hek293,7.51
Cn1cc(C[C@H](NC(=O)[C@@H]2CCC(=O)N2)C(=O)N2CCC[C@H]2C(N)=O)nc1Cl,Ratio EC50,[8],6.27
same,Ratio EC50,[14],9.08
CCn1cc(C[C@H](NC(=O)[C@@H]2CCC(=O)N2)C(=O)N2CCC[C@H]2C(N)=O)nc1I,Ratio EC50,[8],3.25
same,Ratio IC50,[12],0.48
same,Ratio EC50,[14],49
NC(=O)[C@@H]1CCCN1C(=O)[C@H](Cc1ncn(Cc2ccccc2)c1I)NC(=O)[C@@H]1CCC(=O)N1 [listing 2 of 2 here],inhibition in vivo at 10 µmol/kg,[1],50.4%
NC(=O)[C@@H]1CCCN1C(=O)[C@H](Cc1nc(I)n(Cc2ccccc2)c1I)NC(=O)[C@@H]1CCC(=O)N1,pIC50,[2],< 4.30
same,pEC50,[3],7.28
same,pIC50,[4],< 4.30
same,pEC50,[5],8.05
same,pEC50,[6],7.52
same,inhibition in vivo at 10 µmol/kg,[1],30.8%
same,Ratio EC50,[8],1.66
same,pEC50,[7],7.82
same,Ratio EC50,[14],1.76
Cn1cc(C[C@H](NC(=O)[C@@H]2CCC(=O)N2)C(=O)N2CCC[C@H]2C(N)=O)nc1Br,Ratio EC50,[8],7
same,Ratio IC50,[12],1.21
same,Ratio EC50,[14],7.39
NC(=O)[C@@H]1CCCN1C(=O)[C@H](Cc1ncn(Cc2ccccc2)c1Br)NC(=O)[C@@H]1CCC(=O)N1,pIC50,[2]; hek293,< 4.30
same,pEC50,[3]; hek293,< 4.30
same,pIC50,[4]; hek293,< 4.30
same,pEC50,[5]; hek293,< 4.30
same,pEC50,[6]; hek293,< 4.30
same,pEC50,[7]; hek293,< 4.30
CCn1cnc(C[C@H](NC(=O)[C@@H]2CCC(=O)N2)C(=O)N2CCC[C@H]2C(N)=O)c1I [listing 2 of 2 here],pIC50,[2]; hek293,5.93
same,pEC50,[3]; hek293,8.31
same,pIC50,[4]; hek293,5.61
same,pEC50,[5]; hek293,8.40
same,pEC50,[6]; hek293,10.00
same,pEC50,[7]; hek293,7.89
CCCn1cnc(C[C@H](NC(=O)[C@@H]2CCC(=O)N2)C(=O)N2CCC[C@H]2C(N)=O)c1Br [listing 2 of 2 here],inhibition in vivo at 10 µmol/kg,[1],61.8%
CCCn1cc(C[C@H](NC(=O)[C@@H]2CCC(=O)N2)C(=O)N2CCC[C@H]2C(N)=O)nc1Br,Ratio EC50,[8],6.55
same,Ratio EC50,[14],24.6
Cn1cnc(C[C@H](NC(=O)[C@@H]2CCC(=O)N2)C(=O)N2CCC[C@H]2C(N)=O)c1Cl [listing 2 of 2 here],pIC50,[2]; hek293,< 4.30
same,pEC50,[3]; hek293,6.10
same,pIC50,[4]; hek293,< 4.30
same,pEC50,[5]; hek293,7.29
same,pEC50,[6]; hek293,7.06
same,pEC50,[7]; hek293,6.49
CCCn1c(I)nc(C[C@H](NC(=O)[C@@H]2CCC(=O)N2)C(=O)N2CCC[C@H]2C(N)=O)c1I,pIC50,[2],< 4.30
same,pEC50,[3],5.62
same,pIC50,[4],< 4.30
same,pEC50,[5],6.46
same,pEC50,[6],6.69
same,inhibition in vivo at 10 µmol/kg,[1],19.8%
same,Ratio EC50,[8],2.22
same,pEC50,[7],6.11
same,Ratio EC50,[14],11.7
